Earlier results in EP4632015A1, “COMPOUNDS FOR USE IN IN VIVO FLUORESCENCE-LIFETIME IMAGING” (Université de Bourgogne, priority 2024, dated 2025).

Conditions: in a biological environment

CC1(C)C(=CC=C2CCCC(C=CC3=[N+](CCCCCC(=O)[O-])c4ccc(S(=O)(=O)[O-])cc4C3(C)C)=C2Oc2ccc(S(=O)(=O)[O-])cc2)N(CCCCS(=O)(=O)[O-])c2ccc(S(=O)(=O)[O-])cc21.[Na+].[Na+].[Na+].[Na+] [IRDye800CW]
lifetime: less than 1 ns

CC1(C)C(/C=C/C=C/C=C/C=C2\N(CCCCS(=O)(=O)[O-])c3ccc4ccccc4c3C2(C)C)=[N+](CCCCS(=O)(=O)[O-])c2ccc3ccccc3c21.[Na+] [ICG]
lifetime: less than 1 ns
